Assay results reported in patent publication US20260256792A1, “TREATMENT OF CHRONIC SPONTANEOUS URTICARIA BY ADMINISTERING (R)-2-[3-[4-AMINO-3-(2-FLUORO-4-PHENOXY-PHENYL)PYRAZOLO[3,4-D]PYRIMIDIN-1-YL]PIPERIDINE-1-CARBONYL]-4-METHYL-4-[4-(OXETAN-3-YL)PIPERAZIN-1-YL]PENT-2-ENENITRILE” (priority 2023, published 2026).

Tested on: moderate-to-severe chronic spontaneous urticaria (CSU)
Assay: Phase 2 CSU study: urticaria activity score over 7 days (UAS7)
Type: in vivo, human
Set-up: key to UAS7 Median / UAS7 Change from baseline Median / UAS7 change from baseline, Q1 / UAS7 change from baseline, Q3 / UAS7 change from baseline, Max / UAS7 Change from baseline LS Mean (SE): UAS7 points; daily UAS score ranges 0–6 points/day, over 7 days
Text: The study comprises a 12 week, randomized, double-blind, placebo-controlled, multi-center, dose-ranging efficacy and safety phase, followed by a 40 week open label extension (OLE) phase (see FIG. 1). The study consists of three phases and an optional OLE phase. […] Clinically, CSU is characterized by the spontaneous and recurrent appearance of pruritic hives. The proposed primary endpoints were the UAS7 at Week 12 in EU and EU reference countries and the ISS7 in the US. Regardless of where a participant was from, all assessments were the same. The UAS7 score is a composite score containing both the HSS7 and the ISS7. This allowed a global assessment of the two key components of urticaria: hives and itch. […] The UAS is a validated PRO measure. […] The daily UAS scores range from 0 to 6 point/day. […] Patients were to complete the UAS using the e-diary. […] The following secondary endpoints were to be analyzed using the same approach as for the primary endpoint: • Change from baseline in UAS7 at Week 4 • Change from baseline in UAS7 at Week 12 (for US and US reference countries) • Change from baseline in ISS7 at Week 12 (except US and US reference countries) • Change from baseline in HSS7 at Week 12 The following responder secondary endpoints were to be analyzed using the Cochran-Mantel-Haenszel test adjusted by region: • Proportion of participants with UAS7<6 at Week 12 • Proportion of participants with UAS7=0 at Week 12 Participants who received selected prohibited medications and/or rescue medications were to be considered as non-responders for time points after the medication usage. For other participants, all available data including those collected during the off-treatment period were to be used to determine the responder/non-responder status. Missing data were to be considered as non-responders.

[1] = Week 1, 400 mg QPM, Prior Omalizumab Use
[2] = Week 1, 400 mg QPM, omalizumab-naive participants
[3] = Week 1, 400 mg TID, ITT population
[4] = Week 1, 400 mg TID, Omalizumab-Naïve
[5] = Week 1, 400 mg TID, Prior Omalizumab Use
[6] = Week 1, 400 mg TID, omalizumab-naive participants
[7] = Week 2, 400 mg BID, ITT population
[8] = Week 2, 400 mg BID, Omalizumab-Naïve
[9] = Week 2, 400 mg BID, Prior Omalizumab Use
[10] = Week 2, 400 mg BID, omalizumab-naive participants
[11] = Week 2, 400 mg QPM, ITT population
[12] = Week 2, 400 mg QPM, Omalizumab-Naïve
[13] = Week 2, 400 mg QPM, Prior Omalizumab Use
[14] = Week 2, 400 mg QPM, omalizumab-naive participants

CC(C)(C=C(C#N)C(=O)N1CCC[C@@H](n2nc(-c3ccc(Oc4ccccc4)cc3F)c3c(N)ncnc32)C1)N1CCN(C2COC2)CC1 [rilzabrutinib, (R)-2-[3-[4-amino-3-(2-fluoro-4-phenoxy-phenyl)pyrazolo[3,4-d]pyrimidin-1-yl]piperidine-1-carbonyl]-4-methyl-4-[4-(oxetan-3-yl)piperazin-1-yl]pent-2-enenitrile]
UAS7 Percent change from baseline Mean (SD) [1]: −39.02 (NC) % | UAS7 Percent change from baseline Median [1]: −39.02% | Non-responder, UAS7 reduction from baseline of 10 points or more [2]: 26 (70.3) n (%) | OR for rilzabrutinib vs. placebo, UAS7 reduction of 10 points or more [2]: 1.510 | RRD (%) for rilzabrutinib vs. placebo, UAS7 reduction of 10 points or more [2]: 8.2 % | Responder, UAS7 reduction from baseline of 10 points or more [2]: 11 (29.7) n (%) | Non-responder, UAS7 reduction from baseline of 10 points or more [3]: 18 (43.9) n (%) | OR for rilzabrutinib vs. placebo, UAS7 reduction of 10 points or more [3]: 4.196 | RRD (%) for rilzabrutinib vs. placebo, UAS7 reduction of 10 points or more [3]: 32.5 % | Responder, UAS7 reduction from baseline of 10 points or more [3]: 23 (56.1) n (%) | UAS7 Change from baseline Mean (SD) [4]: −11.57 (10.61) | UAS7 Change from baseline Median [4]: −10.00 | UAS7 Mean (SD) [4]: 17.77 (10.26) | UAS7 Median [4]: 18.00 | UAS7 Percent change from baseline Mean (SD) [4]: −38.05 (33.56) % | UAS7 Percent change from baseline Median [4]: −30.95% | UAS7 Change from baseline Mean (SD) [5]: −20.86 (9.80) | UAS7 Change from baseline Median [5]: −21.00 | UAS7 Mean (SD) [5]: 12.17 (8.54) | UAS7 Percent change from baseline Mean (SD) [5]: −63.75 (22.12) % | UAS7 Percent change from baseline Median [5]: −69.05% | Non-responder, UAS7 reduction from baseline of 10 points or more [6]: 17 (48.6) n (%) | OR for rilzabrutinib vs. placebo, UAS7 reduction of 10 points or more [6]: 3.580 | RRD (%) for rilzabrutinib vs. placebo, UAS7 reduction of 10 points or more [6]: 28.5 % | Responder, UAS7 reduction from baseline of 10 points or more [6]: 18 (51.4) n (%) | Non-responder, UAS7 reduction from baseline of 10 points or more [7]: 19 (46.3) n (%) | OR for rilzabrutinib vs. placebo, UAS7 reduction of 10 points or more [7]: 3.388 | RRD (%) for rilzabrutinib vs. placebo, UAS7 reduction of 10 points or more [7]: 27.8 % | Responder, UAS7 reduction from baseline of 10 points or more [7]: 22 (53.7) n (%) | UAS7 Change from baseline Mean (SD) [8]: −10.10 (8.61) | UAS7 Change from baseline Median [8]: −10.00 | UAS7 Mean (SD) [8]: 19.59 (10.86) | UAS7 Median [8]: 18.10 | UAS7 Percent change from baseline Mean (SD) [8]: −35.50 (31.03) % | UAS7 Percent change from baseline Median [8]: −35.71% | UAS7 Change from baseline Mean (SD) [9]: −14.00 (14.98) | UAS7 Change from baseline Median [9]: −10.00 | UAS7 Mean (SD) [9]: 19.00 (13.67) | UAS7 Median [9]: 23.00 | UAS7 Percent change from baseline Mean (SD) [9]: −40.50 (43.43) % | UAS7 Percent change from baseline Median [9]: −27.44% | Non-responder, UAS7 reduction from baseline of 10 points or more [10]: 17 (48.6) n (%) | OR for rilzabrutinib vs. placebo, UAS7 reduction of 10 points or more [10]: 3.686 | RRD (%) for rilzabrutinib vs. placebo, UAS7 reduction of 10 points or more [10]: 28.9 % | Responder, UAS7 reduction from baseline of 10 points or more [10]: 18 (51.4) n (%) | Non-responder, UAS7 reduction from baseline of 10 points or more [11]: 23 (60.5) n (%) | OR for rilzabrutinib vs. placebo, UAS7 reduction of 10 points or more [11]: 2.169 | RRD (%) for rilzabrutinib vs. placebo, UAS7 reduction of 10 points or more [11]: 16.6 % | Responder, UAS7 reduction from baseline of 10 points or more [11]: 15 (39.5) n (%) | UAS7 Change from baseline Mean (SD) [12]: −7.67 (8.84) | UAS7 Change from baseline Median [12]: −5.00 | UAS7 Mean (SD) [12]: 23.44 (8.97) | UAS7 Median [12]: 23.00 | UAS7 Percent change from baseline Mean (SD) [12]: −23.23 (26.34) % | UAS7 Percent change from baseline Median [12]: −16.67% | UAS7 Change from baseline Mean (SD) [13]: −19.00 (NC) | UAS7 Change from baseline Median [13]: −19.00 | UAS7 Mean (SD) [13]: 22.00 (NC) | UAS7 Median [13]: 22.00 | UAS7 Percent change from baseline Mean (SD) [13]: −46.34 (NC) % | UAS7 Percent change from baseline Median [13]: −46.34% | Non-responder, UAS7 reduction from baseline of 10 points or more [14]: 23 (62.2) n (%) | OR for rilzabrutinib vs. placebo, UAS7 reduction of 10 points or more [14]: 2.174 | RRD (%) for rilzabrutinib vs. placebo, UAS7 reduction of 10 points or more [14]: 16.6 % | Responder, UAS7 reduction from baseline of 10 points or more [14]: 14 (37.8) n (%) | Non-responder, UAS7 reduction from baseline of 10 points or more (Week 2, 400 mg TID, ITT population): 13 (31.7) n (%)
